Experimental data taken from paper PMC8973362, “5-(Sulfamoyl)thien-2-yl 1,3-oxazole inhibitors of carbonic anhydrase II with hydrophilic periphery” (Journal of Enzyme Inhibition and Medicinal Chemistry, 2022).
Like-named read-outs stand apart in the source and are kept apart here.

Columns and labels:
[1] = target: T1, hCA I (Homo sapiens, UniProt P00915); experiment: stopped-flow CO2 hydrase assay, hCA I; format: biochemical
T1 construct: made in house

[2] = target: T2, hCA II (Homo sapiens, UniProt P00918); experiment: stopped-flow CO2 hydrase assay, hCA II; format: biochemical
T2 construct: made in house

[3] = target: T3, hCA IV (Homo sapiens, UniProt P22748); experiment: stopped-flow CO2 hydrase assay, hCA IV; format: biochemical
T3 construct: made in house

[4] = target: T4, hCA XII (Homo sapiens, UniProt O43570); experiment: stopped-flow CO2 hydrase assay, hCA XII; format: biochemical
T4 construct: made in house

[5] = tested on: intraocular pressure; experiment: intraocular pressure (IOP) lowering in normotensive rabbits; format: in vivo; conditions: 1% eye drop, normotensive New Zealand White rabbits, n = 6, tested twice; comparable to 1 (dorzolamide, 2% eye drops)

T1 sequence (P00915 whole entry): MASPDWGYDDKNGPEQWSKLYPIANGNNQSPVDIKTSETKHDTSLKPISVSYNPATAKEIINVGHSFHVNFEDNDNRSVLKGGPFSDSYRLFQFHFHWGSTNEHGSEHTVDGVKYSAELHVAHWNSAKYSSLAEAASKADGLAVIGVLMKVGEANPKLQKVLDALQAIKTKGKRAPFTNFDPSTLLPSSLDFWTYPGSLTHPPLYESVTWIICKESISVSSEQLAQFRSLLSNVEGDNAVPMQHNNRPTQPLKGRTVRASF
T4 sequence (O43570 25-354): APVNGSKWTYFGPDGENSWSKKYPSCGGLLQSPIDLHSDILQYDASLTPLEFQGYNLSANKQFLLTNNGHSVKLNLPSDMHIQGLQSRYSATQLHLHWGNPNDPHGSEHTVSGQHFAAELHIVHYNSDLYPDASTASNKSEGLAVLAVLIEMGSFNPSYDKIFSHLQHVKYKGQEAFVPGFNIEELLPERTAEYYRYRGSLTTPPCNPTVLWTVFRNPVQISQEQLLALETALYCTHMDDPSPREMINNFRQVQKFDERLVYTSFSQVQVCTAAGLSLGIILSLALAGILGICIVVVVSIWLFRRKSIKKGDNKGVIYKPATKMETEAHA
T3 sequence (P22748 19-312): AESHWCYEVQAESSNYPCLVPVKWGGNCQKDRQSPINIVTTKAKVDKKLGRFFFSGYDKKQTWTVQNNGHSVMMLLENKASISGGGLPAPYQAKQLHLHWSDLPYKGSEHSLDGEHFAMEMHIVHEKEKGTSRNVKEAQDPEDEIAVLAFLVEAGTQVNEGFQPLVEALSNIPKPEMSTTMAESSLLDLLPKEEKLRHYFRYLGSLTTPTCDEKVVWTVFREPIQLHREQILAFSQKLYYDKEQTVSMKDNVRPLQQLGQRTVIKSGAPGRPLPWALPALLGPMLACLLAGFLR

SMILES	Ki [1] [nM]	Ki [2] [nM]	Ki [3] [nM]	Ki [4] [nM]	IOP lowering effect [5]	Ki ([1]; mean from three assays by stopped flow technique, errors ± 5–10%, read-out: Ki hCA I) [nM]	Ki ([2]; mean from three assays by stopped flow technique, errors ± 5–10%, read-out: Ki hCA II) [nM]	Ki ([3]; mean from three assays by stopped flow technique, errors ± 5–10%, read-out: Ki hCA IV) [nM]	Ki ([4]; mean from three assays by stopped flow technique, errors ± 5–10%, read-out: Ki hCA XII) [nM]
NS(=O)(=O)c1ccc(-c2cnc(C(=O)N3CCNCC3)o2)s1 [7a]	4	0.069	21.6	3.9	clear IOP lowering effect	–	–	–	–
NS(=O)(=O)c1ccc(-c2cnc(C(=O)NC3CCNCC3)o2)s1 [7b]	56.8	–	–	8.9	–	–	–	–	–
NC1CCN(C(=O)c2ncc(-c3ccc(S(N)(=O)=O)s3)o2)CC1 [7c]	31.3	0.41	30.6	5.7	–	–	–	–	–
NCCNC(=O)c1ncc(-c2ccc(S(N)(=O)=O)s2)o1 [7d]	72.9	–	–	9.3	–	–	–	–	–
NCCCNC(=O)c1ncc(-c2ccc(S(N)(=O)=O)s2)o1 [7e]	–	–	–	–	–	58.3	3.1	4.6	8.8
